pKi: −log10 of the molar value.
Columns and labels:
[1] = test system: Liver microsome; test: Intrinsic clearance in Sprague-Dawley rat liver microsomes incubated for 5 mins prior to UDPGA addition measured after 90 mins; assay type: ADME; details: 1.5 h
[2] = molecular target: Liver microsome; test: Drug metabolism in Sprague-Dawley rat liver microsomes assessed as substrate inhibition of IRI-O-5-monoglucuronide formation incubated for 5 mins prior to UDPGA addition measured after 90 mins by Eadie-Hoftsee plot analysis; assay type: ADME
[3] = Drug metabolism in pig liver microsomes assessed as substrate inhibition of IRI-O-5-monoglucuronide formation incubated for 5 mins prior to UDPGA addition measured after 90 mins by Eadie-Hoftsee plot analysis; assay type: ADME, Sus scrofa
[4] = Drug metabolism in pig liver microsomes assessed as IRI-O-4'-monoglucuronide formation incubated for 5 mins prior to UDPGA addition measured after 90 mins by Eadie-Hoftsee plot analysis; assay type: ADME, Sus scrofa; details: 1.5 h
[5] = molecular target: T1, UDP-glucuronosyltransferase 1A9 (Homo sapiens, UniProt O60656); test: Drug metabolism assessed as human recombinant UGT1A9-mediated irilone-O-5-monoglucuronide formation incubated for 5 mins prior to UDPGA addition measured after 90 mins by HPLC-DAD analysis; assay type: ADME; details: recombinant enzyme, 1.5 h
T1 sequence (O60656 whole entry): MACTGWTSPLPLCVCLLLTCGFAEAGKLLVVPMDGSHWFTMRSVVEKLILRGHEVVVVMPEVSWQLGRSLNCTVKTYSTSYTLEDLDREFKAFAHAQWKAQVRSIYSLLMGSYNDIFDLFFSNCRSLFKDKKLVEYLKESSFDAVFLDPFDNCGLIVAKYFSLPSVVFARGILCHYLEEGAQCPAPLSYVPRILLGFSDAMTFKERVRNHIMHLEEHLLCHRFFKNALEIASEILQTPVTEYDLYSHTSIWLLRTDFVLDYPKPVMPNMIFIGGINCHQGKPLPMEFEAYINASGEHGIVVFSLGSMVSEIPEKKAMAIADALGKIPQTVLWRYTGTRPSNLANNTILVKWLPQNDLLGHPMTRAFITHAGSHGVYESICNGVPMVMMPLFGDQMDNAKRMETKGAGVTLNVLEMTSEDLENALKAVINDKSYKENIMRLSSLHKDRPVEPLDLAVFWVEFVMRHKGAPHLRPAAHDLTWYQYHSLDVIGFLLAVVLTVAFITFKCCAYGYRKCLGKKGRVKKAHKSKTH

[6] = molecular target: T2, UDP-glucuronosyltransferase 1A10 (Homo sapiens, UniProt Q9HAW8); test: Activity of human recombinant UGT1A10 assessed as intrinsic clearance incubated for 5 mins prior to UDPGA addition measured after 90 mins; assay type: ADME; details: recombinant enzyme, 1.5 h
T2 sequence (Q9HAW8 whole entry): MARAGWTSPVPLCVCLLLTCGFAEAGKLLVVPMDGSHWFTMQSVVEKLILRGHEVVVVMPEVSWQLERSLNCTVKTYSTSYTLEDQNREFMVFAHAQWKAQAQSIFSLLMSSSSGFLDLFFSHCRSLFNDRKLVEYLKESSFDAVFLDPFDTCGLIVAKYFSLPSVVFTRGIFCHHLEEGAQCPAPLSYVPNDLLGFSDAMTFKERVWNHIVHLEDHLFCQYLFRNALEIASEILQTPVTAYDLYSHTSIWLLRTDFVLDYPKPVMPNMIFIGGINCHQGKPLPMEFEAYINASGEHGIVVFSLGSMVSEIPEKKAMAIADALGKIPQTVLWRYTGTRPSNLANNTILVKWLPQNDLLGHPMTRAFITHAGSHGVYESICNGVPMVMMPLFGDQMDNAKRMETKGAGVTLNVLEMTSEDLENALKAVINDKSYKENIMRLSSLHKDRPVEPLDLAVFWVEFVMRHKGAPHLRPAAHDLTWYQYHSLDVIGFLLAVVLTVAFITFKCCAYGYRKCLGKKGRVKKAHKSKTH

[7] = molecular target: T3, UDP-glucuronosyltransferase 1A7 (Homo sapiens, UniProt Q9HAW7); test: Drug metabolism assessed as human recombinant UGT1A7-mediated irilone-O-5-monoglucuronide formation at 25 uM incubated for 5 mins prior to UDPGA addition measured after 90 mins by HPLC-DAD analysis; assay type: ADME; details: recombinant enzyme, 1.5 h
T3 sequence (Q9HAW7 whole entry): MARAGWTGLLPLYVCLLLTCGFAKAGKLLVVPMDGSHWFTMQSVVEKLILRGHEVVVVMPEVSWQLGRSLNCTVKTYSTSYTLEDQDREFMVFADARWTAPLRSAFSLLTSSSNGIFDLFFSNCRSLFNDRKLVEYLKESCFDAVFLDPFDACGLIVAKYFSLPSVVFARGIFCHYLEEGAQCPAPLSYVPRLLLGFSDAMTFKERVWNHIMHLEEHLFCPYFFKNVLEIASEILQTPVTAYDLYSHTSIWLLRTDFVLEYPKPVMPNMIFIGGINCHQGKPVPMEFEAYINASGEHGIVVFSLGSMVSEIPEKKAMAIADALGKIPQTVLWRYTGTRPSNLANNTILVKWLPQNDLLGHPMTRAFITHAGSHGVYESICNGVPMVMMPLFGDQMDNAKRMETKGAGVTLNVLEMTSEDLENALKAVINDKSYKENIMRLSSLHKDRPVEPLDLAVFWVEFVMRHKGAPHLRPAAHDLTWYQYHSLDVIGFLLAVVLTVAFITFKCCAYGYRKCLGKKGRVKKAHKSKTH

[8] = molecular target: T4, UDP-glucuronosyltransferase 1A8 (Homo sapiens, UniProt Q9HAW9); test: Drug metabolism assessed as human recombinant UGT1A8-mediated irilone-O-4'-monoglucuronide formation at 25 uM incubated for 5 mins prior to UDPGA addition measured after 90 mins by HPLC-DAD analysis; assay type: ADME; details: recombinant enzyme, 1.5 h
T4 sequence (Q9HAW9 whole entry): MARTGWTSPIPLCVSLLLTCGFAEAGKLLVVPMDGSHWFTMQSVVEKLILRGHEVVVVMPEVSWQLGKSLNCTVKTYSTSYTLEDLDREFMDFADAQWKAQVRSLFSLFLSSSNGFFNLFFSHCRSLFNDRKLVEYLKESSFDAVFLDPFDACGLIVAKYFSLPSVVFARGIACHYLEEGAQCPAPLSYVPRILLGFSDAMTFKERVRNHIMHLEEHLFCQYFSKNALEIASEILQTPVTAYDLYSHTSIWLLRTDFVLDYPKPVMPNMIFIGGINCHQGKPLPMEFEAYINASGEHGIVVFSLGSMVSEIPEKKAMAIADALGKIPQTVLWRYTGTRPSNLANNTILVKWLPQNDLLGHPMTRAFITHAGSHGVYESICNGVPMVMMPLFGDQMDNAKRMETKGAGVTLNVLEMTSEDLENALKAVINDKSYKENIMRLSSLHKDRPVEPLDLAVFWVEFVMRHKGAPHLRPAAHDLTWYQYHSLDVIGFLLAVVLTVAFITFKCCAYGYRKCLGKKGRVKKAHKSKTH

[9] = molecular target: T4, UDP-glucuronosyltransferase 1A8; test: Substrate inhibition of human recombinant UGT1A8 assessed as IRI-O-4'-monoglucuronide formation incubated for 5 mins prior to UDPGA addition measured after 90 mins by Eadie-Hoftsee plot analysis; assay type: ADME

O=c1c(-c2ccc(O)cc2)coc2cc3c(c(O)c12)OCO3
CLH [1]: 51000 µL/min/mg
pKi [2]: 4.19
pKi [3]: 3.74
Km [4]: 88.6 µM
Vmax [4]: 4.87 nmol/mg/min
Drug metabolism [5]: metabolite_detected
CL [6]: 99900 µL/min/mg
Drug metabolism [7]: metabolite_detected
Drug metabolism [8]: metabolite_detected
pKi [9]: 4.63

Reference: ChEMBL document CHEMBL3525955, “Glucuronidation of the red clover isoflavone irilone by liver microsomes from different species and human UDP-glucuronosyltransferases” (Drug Metab Dispos, 2011)
